Consider one molecule from patent US10143668B2, “Hydroxy-substituted amino and ammonium derivatives and their medical use” (GRI BIO, INC., priority 2011, dated 2018).

In data set [1] the test system is collagen type II-induced arthritis (CIA) in mice.
For data set [2], the system named is allergic contact dermatitis response in mice. Put plainly: Allergic contact dermatitis (TDI) model in mice, mouse ear swelling test. The class given is in vivo. As for the experimental part: The anti-inflammatory and anti-allergic effects of compound 1a were assessed in a mouse model of allergic contact dermatitis, a response driven primarily by T helper type 2 (Th2) cells. […] In this model, an allergic dermatitis response is obtained by sensitizing mice to TDI and subsequently challenging them with antigen by topical administration onto the ears. A quantitative assessment of anti-inflammatory and anti-allergic effects of topically or orally administered test compounds is possible by measuring the resulting ear swelling.
Female BALB/c-mice were obtained from Charles River (Sulzfeld, Germany) at age 8 weeks. All animals were housed in groups of eight per cage at 22° C. with a 12 h light/dark-cycle. Water and a standard diet (Altromin, Lage/Lippe, Germany) were available ad libitum. All animals were acclimatized for one week before experimental procedures were commenced.
Experimental procedures for BALB/c mice housing, TDI sensitization and challenge, and measurement of ear thickness were performed as previously described (Baumer et al., J Pharm Pharmacol. 55:1107-1114 (2003)) with the following modifications. For active sensitization, 100 μL of 5% (w/v) TDI was administered to the shaved and stripped abdominal epidermis on day one, and for the next three consecutive days, 50 μL of 5% (w/v) TDI was applied. The allergic reaction was boosted 21 days later by application of 50 μL of 0.5% (w/v) TDI. For the examination of test compound effects, the left ears were used for the TDI challenge (20 μL of 0.5% in acetone) and ear thickness measured 3 h before and 24 h after challenge.
Administration time: to determine optimal time for administration treatment groups were treated orally by gavage with 100 mg/kg of compound 1a (suspended in 0.5% tylose, 10 mL/kg) 1, 4 or 16 h before topical TDI challenge. One group was treated with 100 mg/kg miltefosine orally, 16 h before challenge (based on available data for optimal administration time for miltefosine) and vehicle treated mice received tylose (10 mL/kg) orally, 4 h before challenge.
Comparison with dexamethasone: one group of mice was treated orally with compound 1a at 100 mg/kg suspended in 0.5% tylose, 4 h before topical TDI challenge. Vehicle treated mice received 0.5% tylose orally 4 h before challenge. As a positive control, dexamethasone was administered in saline solution at 1 mg/kg or 3 mg/kg, 2 h and 30 min before challenge and 1 h after challenge. The dose and dosing scheme for dexamethasone was based on previous experience showing a maximal effect in this model.
[…] The solution was applied, 2 h before topical TDI challenge by administration of 10 μl onto each of the inner and outer surfaces of the left ears. A vehicle group (n=5) was treated with propyleneglycol. As a positive control, diflorasone diacetate was administered at 0.01% (low dose) and 0.05% (high dose) in 20 μl acetone, 2 h before challenge. A basal control group was left untreated.
Mean and standard error of the mean (SEM) were calculated from individual ear edema values. Statistical evaluation was a one-way analysis of variance (ANOVA) (if the test for normal distribution was passed) or the Kruskal-Wallis one-way ANOVA on Ranks (if the normal distribution test failed). Both were followed by a post-hoc test (Dunnett's method or Dunn's test, respectively). A p<0.05 was considered to be significant.

[3] abbreviates: therapeutic regimen, 100 mg/kg orally twice daily for 20 days, vs vehicle.

“And” between values parts separate entries of the source, which are not always exact repeats. Equal entries are not always repeated. Where two headings read alike, the source gives them in different places. Marks after values point to notes of the source that are not given here.

On to `CCCCCCCCCCCCCC[N+](C)(C)CC(=O)N(C)C[C@H](O)[C@@H](O)[C@H](O)[C@H](O)CO` [Compound 1a, N-(2-(Dimethyl(tetradecyl)ammonio)acetyl)-N-methyl-D-glucamine chloride], for which the cumulative arthritis score result in data set [1] (prophylactic regimen) is “significantly reduced”; in data set [1] (setting [3]), “reduced the arthritis score and cumulative arthritis score compared to vehicle treated mice (FIG. 5C), but without reaching statistical significance”. Besides, the “duration of the disease” value in data set [1] (prophylactic regimen) is “significantly reduced”. The arthritic score result is “significantly reduced” in data set [1] (prophylactic, 25 mg/kg orally twice daily, from day 34 to day 47, vs vehicle) and “significantly reduced” in data set [1] (prophylactic, 100 mg/kg orally twice daily, from day 40 to day 47, vs vehicle). In addition, the paw thickness entry in data set [1] (prophylactic, 25 mg/kg, from day 34 after immunization, vs vehicle) is “significant reduction”. Also, in data set [1] (setting [3]), the arthritis score entry is “reduced the arthritis score and cumulative arthritis score compared to vehicle treated mice (FIG. 5C), but without reaching statistical significance”. For the same molecule, the duration of disease result in data set [1] (therapeutic regimen, 100 mg/kg, vs vehicle) is on record as “trend to a reduction”. Besides, the toxicity entry in data set [2] (100 mg/kg oral) was “no toxicity”. Also, the “inhibition relative to the highest dose of dexamethasone” value in data set [2] (100 mg/kg oral vs dexamethasone 3 mg/kg) was determined as 37%. The “Inhibition of mouse ear swelling” value in data set [2] (administration time study, 100 mg/kg oral, 1 h before TDI challenge) is 43.5* %; in data set [2] (administration time study, 100 mg/kg oral, 4 h before TDI challenge), 63% and 62.9*** %; in data set [2] (administration time study, 100 mg/kg oral, 16 h before TDI challenge), 43.5^§ %; in data set [2] (comparison with dexamethasone, 100 mg/kg oral, 4 h before challenge) it was 32%; in data set [2] (topical, 2% solution in propyleneglycol, 2 h before challenge), 68% and 67.7*** %; in data set [2] (topical, 6% solution in propyleneglycol, 2 h before challenge), 83% and 82.2*** %.
